In one assay the target is EGFR wildtype (WT) (Homo sapiens, UniProt P00533). Nature of the assay: Biochemical EGFR kinase inhibition assay (Lance Ultra TR-FRET), wildtype. In short, it runs like this: (§1)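 Enzyme reactions lasted 1 hour at room temperature with test compounds between 0.003 and 10 μM, followed by 10 mM EDTA quench.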
(TR-FRET usually uses a lanthanide donor and a delayed reading to cut background.)

The next assay has as its target EGFR Del19/T790M/C797S (Homo sapiens, UniProt P00533, C797S/DEL746-750/T790M). The assay can be described thus: Biochemical EGFR kinase inhibition assay (Lance Ultra TR-FRET), triple mutant del19/T790M/C797S. An outline of the steps: as §1
A further assay addresses EGFR L858R/C797S (Homo sapiens, UniProt P00533, C797S/L858R). The assay can be described thus: Biochemical EGFR kinase inhibition assay (Lance Ultra TR-FRET), double mutant L858R/C797S. An outline of the steps: as §1
The next assay has as its target EGFR Del19/C797S (Homo sapiens, UniProt P00533, C797S/DEL746-750). The assay can be described thus: Biochemical EGFR kinase inhibition assay (Lance Ultra TR-FRET), double mutant del19/C797S. An outline of the steps: as §1
For another assay, the target named is EGFR L858R/T790M/C797S (Homo sapiens, UniProt P00533, C797S/L858R/T790M). Nature of the assay: Biochemical EGFR kinase inhibition assay (Lance Ultra TR-FRET), triple mutant L858R/T790M/C797S. In short, it runs like this: as §1
Chain of EGFR L858R/T790M/C797S (P00533 25-1210 T790M/C797S/L858R): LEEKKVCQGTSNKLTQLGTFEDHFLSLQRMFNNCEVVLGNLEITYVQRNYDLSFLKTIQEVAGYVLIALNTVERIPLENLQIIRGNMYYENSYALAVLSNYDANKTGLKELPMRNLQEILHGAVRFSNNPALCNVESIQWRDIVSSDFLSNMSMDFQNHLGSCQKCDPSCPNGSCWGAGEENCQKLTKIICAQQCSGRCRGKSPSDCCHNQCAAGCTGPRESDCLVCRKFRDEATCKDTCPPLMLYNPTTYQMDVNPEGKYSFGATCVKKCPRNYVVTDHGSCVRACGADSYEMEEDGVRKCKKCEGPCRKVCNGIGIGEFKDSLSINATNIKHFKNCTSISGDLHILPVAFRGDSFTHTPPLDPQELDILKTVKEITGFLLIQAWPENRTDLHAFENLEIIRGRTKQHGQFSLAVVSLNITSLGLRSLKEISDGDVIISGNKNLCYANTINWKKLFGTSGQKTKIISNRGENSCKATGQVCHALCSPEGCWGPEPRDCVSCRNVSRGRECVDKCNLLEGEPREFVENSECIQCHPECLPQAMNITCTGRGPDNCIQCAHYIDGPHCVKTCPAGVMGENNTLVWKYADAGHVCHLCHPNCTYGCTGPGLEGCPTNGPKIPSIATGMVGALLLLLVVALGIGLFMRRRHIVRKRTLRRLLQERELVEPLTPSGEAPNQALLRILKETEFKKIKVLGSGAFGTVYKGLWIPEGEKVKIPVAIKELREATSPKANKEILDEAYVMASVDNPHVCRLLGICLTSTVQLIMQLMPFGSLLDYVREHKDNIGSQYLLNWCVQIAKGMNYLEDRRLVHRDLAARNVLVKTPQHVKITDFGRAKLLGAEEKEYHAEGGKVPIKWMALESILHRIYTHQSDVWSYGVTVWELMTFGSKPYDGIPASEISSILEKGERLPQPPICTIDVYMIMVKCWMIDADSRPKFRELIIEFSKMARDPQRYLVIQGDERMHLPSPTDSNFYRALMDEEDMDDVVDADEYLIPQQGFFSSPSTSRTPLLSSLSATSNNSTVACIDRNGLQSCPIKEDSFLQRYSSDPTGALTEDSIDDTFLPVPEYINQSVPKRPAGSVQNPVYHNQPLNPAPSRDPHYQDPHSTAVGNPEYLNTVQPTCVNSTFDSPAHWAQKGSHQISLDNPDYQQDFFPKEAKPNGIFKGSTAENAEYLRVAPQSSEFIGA
Setting [1] is: IC50 Del19/T790M/C797S (nM), 100 μM ATP.
[2] abbreviates: IC50 L858R/C797S (nM), 100 μM ATP.
Setting [3] is: IC50 Del19/C797S (nM), 100 μM ATP.
Where [4] appears, read: IC50 L858R/T790M/C797S (nM), 100 μM ATP.
Setting [5] is: Km ATP, read-out: IC50 WT (nM) Km ATP.
The mark [6] stands for this setting: Km ATP, read-out: IC50 Del19/T790M/C797S (nM) Km ATP.
[7] abbreviates: Km ATP, read-out: IC50 L858R/C797S (nM) Km ATP.
Setting [8] is: ATP at Km, read-out: IC50 WT (nM), Km ATP.
Where [9] appears, read: ATP at Km, read-out: IC50 Del19/T790M/C797S (nM), Km ATP.
Setting [10] is: ATP at Km, read-out: IC50 L858R/C797S (nM), Km ATP.
[11] abbreviates: ATP at Km, read-out: IC50 Del19/C797S (nM), Km ATP.
Setting [12] is: ATP at Km, read-out: IC50 L858R/T790M/C797S (nM), Km ATP.

Where two headings read alike, the source gives them in different places.

Chain of EGFR L858R/C797S (P00533 25-1210 C797S/L858R): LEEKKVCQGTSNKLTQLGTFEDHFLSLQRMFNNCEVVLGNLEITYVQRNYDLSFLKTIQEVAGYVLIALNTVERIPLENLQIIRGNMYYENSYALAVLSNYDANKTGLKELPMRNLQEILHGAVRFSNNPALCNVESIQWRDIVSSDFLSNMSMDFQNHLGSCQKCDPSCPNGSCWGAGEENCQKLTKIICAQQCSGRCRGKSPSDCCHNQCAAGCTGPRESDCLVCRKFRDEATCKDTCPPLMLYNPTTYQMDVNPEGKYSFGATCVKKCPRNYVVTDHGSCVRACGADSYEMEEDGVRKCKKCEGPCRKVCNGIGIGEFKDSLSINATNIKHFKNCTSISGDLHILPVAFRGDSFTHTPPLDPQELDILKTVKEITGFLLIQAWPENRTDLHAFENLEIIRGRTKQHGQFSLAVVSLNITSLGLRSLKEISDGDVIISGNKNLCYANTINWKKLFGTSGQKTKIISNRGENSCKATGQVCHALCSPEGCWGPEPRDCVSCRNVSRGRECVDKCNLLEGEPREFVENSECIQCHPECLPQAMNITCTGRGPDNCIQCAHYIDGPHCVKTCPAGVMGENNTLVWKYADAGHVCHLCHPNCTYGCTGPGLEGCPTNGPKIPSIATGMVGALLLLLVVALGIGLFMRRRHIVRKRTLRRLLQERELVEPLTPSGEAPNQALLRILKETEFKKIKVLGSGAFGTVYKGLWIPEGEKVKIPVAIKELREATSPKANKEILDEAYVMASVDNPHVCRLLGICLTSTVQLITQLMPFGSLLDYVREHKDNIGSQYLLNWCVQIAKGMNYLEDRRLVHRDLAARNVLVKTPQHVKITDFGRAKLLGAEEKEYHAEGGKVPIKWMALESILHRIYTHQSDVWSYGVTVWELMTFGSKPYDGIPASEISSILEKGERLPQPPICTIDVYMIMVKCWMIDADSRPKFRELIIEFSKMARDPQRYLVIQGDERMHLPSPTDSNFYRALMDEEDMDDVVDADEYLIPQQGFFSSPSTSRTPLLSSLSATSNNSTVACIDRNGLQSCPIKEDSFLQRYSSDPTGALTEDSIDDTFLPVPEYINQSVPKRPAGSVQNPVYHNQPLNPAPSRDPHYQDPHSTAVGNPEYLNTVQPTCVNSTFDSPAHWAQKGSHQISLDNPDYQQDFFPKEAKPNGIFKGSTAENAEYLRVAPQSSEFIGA
Chain of EGFR wildtype (WT) (P00533 25-1210): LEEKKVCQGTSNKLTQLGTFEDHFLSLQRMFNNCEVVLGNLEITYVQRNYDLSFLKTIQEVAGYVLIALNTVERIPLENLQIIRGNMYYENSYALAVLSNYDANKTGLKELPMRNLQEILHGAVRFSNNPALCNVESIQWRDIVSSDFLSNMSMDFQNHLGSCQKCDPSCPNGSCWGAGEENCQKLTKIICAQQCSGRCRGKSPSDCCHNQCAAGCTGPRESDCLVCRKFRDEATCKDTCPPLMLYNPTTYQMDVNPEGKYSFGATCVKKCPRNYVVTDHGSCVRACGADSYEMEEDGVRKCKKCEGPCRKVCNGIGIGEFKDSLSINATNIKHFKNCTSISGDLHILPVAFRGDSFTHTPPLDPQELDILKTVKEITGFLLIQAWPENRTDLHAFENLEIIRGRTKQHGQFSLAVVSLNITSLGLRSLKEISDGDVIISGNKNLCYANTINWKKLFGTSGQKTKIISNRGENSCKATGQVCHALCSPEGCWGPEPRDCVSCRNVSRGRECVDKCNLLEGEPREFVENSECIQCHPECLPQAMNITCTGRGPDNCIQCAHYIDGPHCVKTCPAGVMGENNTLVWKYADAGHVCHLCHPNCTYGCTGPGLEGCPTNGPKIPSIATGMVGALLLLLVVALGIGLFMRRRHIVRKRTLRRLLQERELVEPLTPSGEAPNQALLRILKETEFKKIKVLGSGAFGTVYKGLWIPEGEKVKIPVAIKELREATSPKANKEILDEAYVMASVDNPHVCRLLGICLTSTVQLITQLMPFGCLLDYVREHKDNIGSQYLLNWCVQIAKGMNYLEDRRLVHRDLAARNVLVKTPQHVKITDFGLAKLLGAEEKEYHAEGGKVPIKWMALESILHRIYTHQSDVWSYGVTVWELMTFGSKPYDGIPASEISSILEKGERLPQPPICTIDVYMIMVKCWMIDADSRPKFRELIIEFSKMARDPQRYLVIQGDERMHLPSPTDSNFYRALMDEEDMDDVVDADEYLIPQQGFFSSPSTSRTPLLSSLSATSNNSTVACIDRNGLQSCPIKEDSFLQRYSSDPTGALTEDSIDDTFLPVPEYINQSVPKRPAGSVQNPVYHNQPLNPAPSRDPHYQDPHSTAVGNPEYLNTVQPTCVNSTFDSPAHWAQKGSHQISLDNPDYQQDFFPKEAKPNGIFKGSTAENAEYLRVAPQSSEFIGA
Chain of EGFR Del19/C797S (P00533 with tags, fused parts or gaps DEL746-750/C797S): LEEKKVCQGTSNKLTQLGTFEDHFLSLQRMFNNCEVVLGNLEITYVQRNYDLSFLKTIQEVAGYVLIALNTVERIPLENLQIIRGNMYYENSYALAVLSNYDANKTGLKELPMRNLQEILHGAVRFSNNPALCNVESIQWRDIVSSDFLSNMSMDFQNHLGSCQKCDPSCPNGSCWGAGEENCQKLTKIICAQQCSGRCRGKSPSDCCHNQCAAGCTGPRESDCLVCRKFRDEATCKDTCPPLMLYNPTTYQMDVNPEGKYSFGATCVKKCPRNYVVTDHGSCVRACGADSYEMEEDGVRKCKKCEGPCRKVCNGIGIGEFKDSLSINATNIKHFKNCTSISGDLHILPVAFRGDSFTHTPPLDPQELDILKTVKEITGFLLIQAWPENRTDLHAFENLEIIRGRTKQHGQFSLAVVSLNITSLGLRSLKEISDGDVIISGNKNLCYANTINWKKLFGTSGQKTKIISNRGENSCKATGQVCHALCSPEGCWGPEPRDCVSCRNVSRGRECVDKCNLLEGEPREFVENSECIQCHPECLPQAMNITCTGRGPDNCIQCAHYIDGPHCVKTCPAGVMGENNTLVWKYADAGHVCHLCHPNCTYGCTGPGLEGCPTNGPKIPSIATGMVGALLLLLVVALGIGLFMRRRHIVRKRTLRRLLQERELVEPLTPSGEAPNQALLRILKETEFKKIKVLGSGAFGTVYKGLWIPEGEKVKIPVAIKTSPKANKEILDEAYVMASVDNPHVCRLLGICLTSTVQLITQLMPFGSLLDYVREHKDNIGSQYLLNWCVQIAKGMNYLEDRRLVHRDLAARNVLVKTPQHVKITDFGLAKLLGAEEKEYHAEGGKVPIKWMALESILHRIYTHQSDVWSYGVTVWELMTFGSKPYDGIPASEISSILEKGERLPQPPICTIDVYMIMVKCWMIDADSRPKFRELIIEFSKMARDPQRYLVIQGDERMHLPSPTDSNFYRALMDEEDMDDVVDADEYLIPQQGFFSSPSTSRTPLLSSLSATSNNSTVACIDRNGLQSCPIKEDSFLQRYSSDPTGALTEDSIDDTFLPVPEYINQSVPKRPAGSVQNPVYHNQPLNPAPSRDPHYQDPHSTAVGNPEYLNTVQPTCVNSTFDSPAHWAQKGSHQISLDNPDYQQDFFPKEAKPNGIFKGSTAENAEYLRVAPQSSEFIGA

As to `O=S(=O)(C1CC1)n1cc(-c2nccc(Nc3cc(NC4CCC(O)CC4)c(C#CC4CCOC4C(F)(F)F)cn3)n2)cn1` [Example 420, (1s,4s)-4-((2-((2-(1-(Cyclopropylsulfonyl)-1H-pyrazol-4-yl)pyrimidin-4-yl)amino)-5-(((2R)-2-(trifluoromethyl)tetrahydrofuran-3-yl)ethynyl)pyridin-4-yl)amino)cyclohexan-1-ol], the IC50 at EGFR wildtype (WT) (IC50 WT (nM), 100 μM ATP) is greater than 10000 nM; on EGFR wildtype (WT) (Km ATP, read-out: IC50 WT (nM), Km ATP) it was 52.7 nM; at EGFR Del19/T790M/C797S (setting [1]), 1.3 nM; at EGFR Del19/T790M/C797S (Km ATP, read-out: IC50 Del19/T790M/C797S (nM), Km ATP) it was 1.6 nM; at EGFR L858R/C797S (setting [2]), 119 nM; at EGFR L858R/C797S (Km ATP, read-out: IC50 L858R/C797S (nM), Km ATP), 12.6 nM. Besides, the IC50 on EGFR Del19/C797S (setting [3]) came out at 6.9 nM; on EGFR Del19/C797S (Km ATP, read-out: IC50 Del19/C797S (nM), Km ATP), 6.4 nM; against EGFR L858R/T790M/C797S (setting [4]) it was 2.3 nM; on EGFR L858R/T790M/C797S (Km ATP, read-out: IC50 L858R/T790M/C797S (nM), Km ATP), 0.5 nM.
For `O=S(=O)(C1CC1)n1cc(-c2nccc(Nc3cc(N4CC[C@@H](O)C4)c(C#Cc4cnn(CCF)c4)cn3)n2)cn1` [Example 32, (R)-1-(2-((2-(1-(Cyclopropylsulfonyl)-1H-pyrazol-4-yl)pyrimidin-4-yl)amino)-5-((1-(2-fluoroethyl)-1H-pyrazol-4-yl)ethynyl)pyridin-4-yl)pyrrolidin-3-ol], the IC50 against EGFR wildtype (WT) (IC50 WT (nM), 100 μM ATP) is greater than 10000 nM; on EGFR wildtype (WT) (setting [5]), 29.4 nM; at EGFR Del19/T790M/C797S (setting [1]), 1.1 nM; at EGFR Del19/T790M/C797S (setting [6]), 1.5 nM; at EGFR L858R/C797S (setting [2]), 96.9 nM; at EGFR L858R/C797S (setting [7]), 12 nM. Besides, the IC50 at EGFR Del19/C797S (setting [3]) turned out to be 11.8 nM; against EGFR L858R/T790M/C797S (setting [4]), 4.8 nM.
Take `CN(C)CC1CCN(c2cc(Nc3ccnc(-c4cnn(S(=O)(=O)C5CC5)c4)n3)ncc2C#Cc2cnn(CC(F)F)c2)CC1` [Example 301, 2-(1-(Cyclopropylsulfonyl)-1H-pyrazol-4-yl)-N-(5-((1-(2,2-difluoroethyl)-1H-pyrazol-4-yl)ethynyl)-4-(4-((dimethylamino)methyl)piperidin-1-yl)pyridin-2-yl)pyrimidin-4-amine]: the IC50 was 22.9 nM on EGFR wildtype (WT) (setting [8]); greater than 10000 nM at EGFR wildtype (WT) (IC50 WT (nM), 100 μM ATP); 0.6 nM at EGFR Del19/T790M/C797S (setting [9]); 0.7 nM against EGFR Del19/T790M/C797S (setting [1]); 11.2 nM at EGFR L858R/C797S (setting [10]); 138 nM against EGFR L858R/C797S (setting [2]). For the same compound, the IC50 was 7.2 nM at EGFR Del19/C797S (setting [11]), 4.9 nM against EGFR Del19/C797S (setting [3]), 0.6 nM on EGFR L858R/T790M/C797S (setting [12]) and 1.4 nM against EGFR L858R/T790M/C797S (setting [4]).
Turning to `CC1(CO)CCN(c2cc(Nc3ccnc(-c4cnn(S(=O)(=O)C5CC5)c4)n3)ncc2C#Cc2cnn(CCN3CCOCC3)c2)CC1` [Example 232, (1-(2-((2-(1-(Cyclopropylsulfonyl)-1H-pyrazol-4-yl)pyrimidin-4-yl)amino)-5-((1-(2-morpholinoethyl)-1H-pyrazol-4-yl)ethynyl)pyridin-4-yl)-4-methylpiperidin-4-yl)methanol], the IC50 against EGFR wildtype (WT) (IC50 WT (nM), 100 μM ATP) was 719 nM; at EGFR wildtype (WT) (setting [5]), 0.9 nM; on EGFR Del19/T790M/C797S (setting [1]), 1.3 nM; at EGFR Del19/T790M/C797S (setting [6]), 0.8 nM; against EGFR L858R/C797S (setting [2]), 5.9 nM; at EGFR L858R/C797S (setting [7]), 0.2 nM. The IC50 was determined as 1.1 nM against EGFR Del19/C797S (setting [3]); 0.4 nM on EGFR Del19/C797S (Km ATP, read-out: IC50 Del19/C797S (nM) Km ATP); 1.3 nM against EGFR L858R/T790M/C797S (setting [4]); 0.5 nM on EGFR L858R/T790M/C797S (Km ATP, read-out: IC50 L858R/T790M/C797S (nM) Km ATP).
Take `CC1(CO)CCN(c2cc(Nc3ccnc(-c4cnn(S(=O)(=O)C5CC5)c4)n3)ncc2C#C[Si](C)(C)C)CC1` [Example 246, (1-(2-((2-(1-(Cyclopropylsulfonyl)-1H-pyrazol-4-yl)pyrimidin-4-yl)amino)-5-((trimethylsilyl)ethynyl)pyridin-4-yl)-4-methylpiperidin-4-yl)methanol]: the IC50 at EGFR wildtype (WT) (setting [8]) is 258 nM; against EGFR wildtype (WT) (IC50 WT (nM), 100 μM ATP), greater than 10000 nM; at EGFR Del19/T790M/C797S (setting [9]) it was 7.4 nM; at EGFR Del19/T790M/C797S (setting [1]), 6.4 nM; at EGFR L858R/C797S (setting [10]), 105 nM; on EGFR L858R/C797S (setting [2]), 957 nM. Moreover, the IC50 at EGFR Del19/C797S (setting [11]) worked out at 34 nM; at EGFR Del19/C797S (setting [3]) it was 54.6 nM; at EGFR L858R/T790M/C797S (setting [12]) it was 3.8 nM; on EGFR L858R/T790M/C797S (setting [4]), 15.4 nM.

Source of the values: US11981658B2, “Substituted aminopyridine compounds as EGFR inhibitors” (YUHAN CORPORATION, priority 2021, dated 2024).
